Source: patent US10590078B2, “Sodium channel blockers” (Daewoong Pharmaceutical Co., Ltd., priority 2015, dated 2020)

Molecular target: human sodium ion channel 1.7 (hNav1.7) (Homo sapiens, UniProt Q15858)
Assay: Blocking effect against sodium ion channel Nav1.7, IonFlux16 auto patch clamp in hNav1.7 HEK293 cells
Type: cell-based
Conditions: hNav1.7 HEK293 cells; inhibition of peak current after 50 seconds treatment; eight concentrations; read-out: IC50

human sodium ion channel 1.7 (hNav1.7), sequence (Q15858 whole entry): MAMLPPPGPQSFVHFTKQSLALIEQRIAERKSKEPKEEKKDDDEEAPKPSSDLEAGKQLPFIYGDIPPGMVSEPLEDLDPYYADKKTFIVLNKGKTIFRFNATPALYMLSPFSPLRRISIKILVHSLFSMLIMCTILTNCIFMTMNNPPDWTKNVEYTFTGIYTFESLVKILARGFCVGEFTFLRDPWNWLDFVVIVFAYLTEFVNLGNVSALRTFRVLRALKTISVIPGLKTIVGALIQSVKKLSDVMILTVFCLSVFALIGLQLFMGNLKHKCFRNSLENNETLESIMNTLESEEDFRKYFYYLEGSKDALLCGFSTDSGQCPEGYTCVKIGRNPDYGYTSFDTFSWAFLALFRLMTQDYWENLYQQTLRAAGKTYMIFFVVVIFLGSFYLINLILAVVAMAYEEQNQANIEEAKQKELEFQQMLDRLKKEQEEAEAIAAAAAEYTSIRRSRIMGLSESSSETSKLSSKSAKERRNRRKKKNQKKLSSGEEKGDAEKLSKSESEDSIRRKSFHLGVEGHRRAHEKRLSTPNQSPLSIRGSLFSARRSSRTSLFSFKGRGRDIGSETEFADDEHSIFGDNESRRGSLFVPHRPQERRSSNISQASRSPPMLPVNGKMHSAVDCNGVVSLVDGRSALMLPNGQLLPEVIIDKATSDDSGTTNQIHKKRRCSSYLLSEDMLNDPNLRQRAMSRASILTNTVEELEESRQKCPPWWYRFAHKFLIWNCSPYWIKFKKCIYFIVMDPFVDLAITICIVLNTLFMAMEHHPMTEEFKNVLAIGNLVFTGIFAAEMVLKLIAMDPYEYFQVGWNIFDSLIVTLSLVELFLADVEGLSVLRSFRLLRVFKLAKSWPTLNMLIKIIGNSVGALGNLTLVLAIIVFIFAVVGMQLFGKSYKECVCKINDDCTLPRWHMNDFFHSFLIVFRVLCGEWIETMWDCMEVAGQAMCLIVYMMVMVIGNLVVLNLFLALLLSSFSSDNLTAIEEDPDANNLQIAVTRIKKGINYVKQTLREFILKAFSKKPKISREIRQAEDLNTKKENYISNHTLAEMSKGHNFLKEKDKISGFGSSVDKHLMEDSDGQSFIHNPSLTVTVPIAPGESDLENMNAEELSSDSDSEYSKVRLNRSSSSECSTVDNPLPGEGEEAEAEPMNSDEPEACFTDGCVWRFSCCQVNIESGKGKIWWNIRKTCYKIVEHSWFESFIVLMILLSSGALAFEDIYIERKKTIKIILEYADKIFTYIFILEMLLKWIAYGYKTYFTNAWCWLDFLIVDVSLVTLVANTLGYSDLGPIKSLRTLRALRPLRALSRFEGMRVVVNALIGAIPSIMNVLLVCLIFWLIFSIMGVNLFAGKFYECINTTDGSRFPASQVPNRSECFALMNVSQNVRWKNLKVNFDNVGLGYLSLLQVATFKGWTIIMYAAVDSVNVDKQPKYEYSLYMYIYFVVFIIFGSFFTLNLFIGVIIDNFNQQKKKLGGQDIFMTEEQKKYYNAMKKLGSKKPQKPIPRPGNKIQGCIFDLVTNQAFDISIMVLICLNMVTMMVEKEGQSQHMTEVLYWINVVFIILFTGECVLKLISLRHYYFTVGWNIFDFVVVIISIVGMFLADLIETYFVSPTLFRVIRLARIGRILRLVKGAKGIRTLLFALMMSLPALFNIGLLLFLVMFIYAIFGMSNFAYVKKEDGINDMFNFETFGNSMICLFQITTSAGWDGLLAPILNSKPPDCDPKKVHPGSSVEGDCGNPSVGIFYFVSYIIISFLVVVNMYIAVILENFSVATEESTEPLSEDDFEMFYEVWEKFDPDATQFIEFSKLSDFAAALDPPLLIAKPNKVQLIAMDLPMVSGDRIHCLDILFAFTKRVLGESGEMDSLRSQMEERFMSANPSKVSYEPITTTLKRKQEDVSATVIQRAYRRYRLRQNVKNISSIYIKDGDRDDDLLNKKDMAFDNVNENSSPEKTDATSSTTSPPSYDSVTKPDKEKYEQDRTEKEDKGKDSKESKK

IC50 | SMILES
460 nM | CS(=O)(=O)NC(=O)c1cc(Cl)c(-n2cc(-c3ccccc3Cl)c3cccnc32)cc1F [Example 225, 5-chloro-4-(3-(2-chlorophenyl)-1H-pyrrolo[2,3-b]pyridin-1-yl)-2-fluoro-N-(methylsulfonyl)benzamide]
> 10000 nM | CS(=O)(=O)NC(=O)c1cc(Cl)c(-n2nc(Cl)c3cc(-c4ccccc4C#N)ccc32)cc1F [Example 237, 5-chloro-4-(3-chloro-5-(2-cyanophenyl)-1H-indazol-1-yl)-2-fluoro-N-(methylsulfonyl)benzamide]
110 nM | CC(C)Cc1ccc2c(c1)c(-c1ccccc1)nn2-c1cc(F)c(C(=O)NS(C)(=O)=O)cc1Cl [Example 84, 5-chloro-2-fluoro-4-(5-isobutyl-3-phenyl-1H-indazol-1-yl)-N-(methylsulfonyl)benzamide]
220 nM | CS(=O)(=O)NC(=O)c1cc(Cl)c(-n2nc(-c3ccc(Cl)c(F)c3)c3cc(F)ccc32)cc1F [Example 164, 5-chloro-4-(3-(4-chloro-3-fluorophenyl)-5-fluoro-1H-indazol-1-yl)-2-fluoro-N-(methylsulfonyl)benzamide]
180 nM | COc1ccc2c(c1)c(-c1ccc(Cl)cc1F)nn2-c1cc(F)c(C(=O)NS(C)(=O)=O)cc1Cl [Example 169, 5-chloro-4-(3-(4-chloro-2-fluorophenyl)-5-methoxy-1H-indazol-1-yl)-2-fluoro-N-(methylsulfonyl)benzamide]
80 nM | CS(=O)(=O)NC(=O)c1cc(Cl)c(-n2nc(-c3ccc(OC(F)(F)F)cc3)c3cc(Cl)ccc32)cc1F [Example 83, 5-chloro-4-(5-chloro-3-(4-(trifluoromethoxy)phenyl)-1H-indazol-1-yl)-2-fluoro-N-(methylsulfonyl)benzamide]
8910 nM | N#Cc1cc(S(=O)(=O)Nc2cscn2)ccc1-n1nc(Cl)c2cc(C(F)(F)F)ccc21 [Example 278, 4-(3-chloro-5-(trifluoromethyl)-1H-indazol-1-yl)-3-cyano-N-(thiazol-4-yl)benzenesulfonamide]
811 nM | COc1ccccc1-c1nn(-c2cc(Cl)c(C(=O)NS(C)(=O)=O)cc2F)c2ccc(Cl)cc12 [Example 107, 2-chloro-4-(5-chloro-3-(2-methoxyphenyl)-1H-indazol-1-yl)-5-fluoro-N-(methylsulfonyl)benzamide]
1080 nM | O=S(=O)(Nc1cscn1)c1cc(Cl)c(-n2nc(Cl)c3cc(C(F)(F)F)ccc32)cc1F [Example 280, 5-chloro-4-(3-chloro-5-(trifluoromethyl)-1H-indazol-1-yl)-2-fluoro-N-(thiazol-4-yl)benzenesulfonamide]
11200 nM | NC(=O)NNC(=O)c1cc(Cl)c(-n2nc(-c3ccc(Cl)cc3F)c3cc(Cl)ccc32)cc1F [Example 290, 2-(5-chloro-4-(5-chloro-3-(4-chloro-2-fluorophenyl)-1H-indazol-1-yl)-2-fluorobenzoyl)hydrazine-1-carboxamide]
48 nM | CS(=O)(=O)NC(=O)c1cc(Cl)c(-n2nc(-c3ccccc3)c3cc(Cl)ccc32)cc1F [Example 48, 5-chloro-4-(5-chloro-3-phenyl-1H-indazol-1-yl)-2-fluoro-N-(methylsulfonyl)benzamide]
8250 nM | O=S(=O)(Nc1cscn1)c1cc(Cl)c(-n2nc(-c3ccc(Cl)cc3F)c3cc(Cl)ccc32)cc1F [Example 287, 5-chloro-4-(5-chloro-3-(4-chloro-2-fluorophenyl)-1H-indazol-1-yl)-2-fluoro-N-(thiazol-4-yl)benzenesulfonamide]
180 nM | CS(=O)(=O)NC(=O)c1cc(Cl)c(-n2cc(-c3ccc(F)cc3F)c3cccnc32)cc1F [Example 229, 5-chloro-4-(3-(2,4-difluorophenyl)-1H-pyrrolo[2,3-b]pyridin-1-yl)-2-fluoro-N-(methylsulfonyl)benzamide]
> 10000 nM | CS(=O)(=O)N(Cc1ccc2ccccc2c1)C(=O)c1cc(Cl)c(-n2nc(Cl)c3cc(O)ccc32)cc1F [Example 140, 5-chloro-4-(3-chloro-5-hydroxy-1H-indazol-1-yl)-2-fluoro-N-(methylsulfonyl)-N-(naphthalen-2-ylmethyl)benzamide]
620 nM | CS(=O)(=O)NC(=O)c1cc(Cl)c(-n2cc(-c3ccc(C#N)cc3)c3cc(Cl)cnc32)cc1F [Example 187, 5-chloro-4-(5-chloro-3-(4-cyanophenyl)-1H-pyrrolo[2,3-b]pyridin-1-yl)-2-fluoro-N-(methylsulfonyl)benzamide]
50 nM | CS(=O)(=O)NC(=O)c1cc(Cl)c(-n2cc(-c3cccc(Cl)c3)c3cc(F)cnc32)cc1F [Example 208, 5-chloro-4-(3-(3-chlorophenyl)-5-fluoro-1H-pyrrolo[2,3-b]pyridin-1-yl)-2-fluoro-N-(methylsulfonyl)benzamide]
> 10000 nM | Fc1cc(-n2nc(-c3ccc(Cl)cc3F)c3cc(Cl)ccc32)c(Cl)cc1-c1nnn[nH]1 [Example 289, 5-chloro-3-(4-chloro-2-fluorophenyl)-1-(2-chloro-5-fluoro-4-(1H-tetrazol-5-yl)phenyl)-1H-indazole]
200 nM | CS(=O)(=O)NC(=O)c1cc(Cl)c(-n2nc(-c3ccc(F)cc3)c3cc(F)ccc32)cc1F [Example 153, 5-chloro-2-fluoro-4-(5-fluoro-3-(4-fluorophenyl)-1H-indazol-1-yl)-N-(methylsulfonyl)benzamide]

IC50 | SMILES
190 nM | CS(=O)(=O)NC(=O)c1cc(Cl)c(-n2nc(-c3cccc(F)c3)c3ccccc32)cc1F [Example 171, 5-chloro-2-fluoro-4-(3-(3-fluorophenyl)-1H-indazol-1-yl)-N-(methylsulfonyl)benzamide]
100 nM | CS(=O)(=O)NC(=O)c1cc(Cl)c(-n2nc(-c3ccccc3)c3cc(C4CC4)ccc32)cc1F [Example 26, 5-chloro-4-(5-cyclopropyl-3-phenyl-1H-indazol-1-yl)-2-fluoro-N-(methylsulfonyl)benzamide]
60 nM | CS(=O)(=O)NC(=O)c1cc(Cl)c(-n2nc(-c3ccc(Cl)cc3)c3cc(F)ccc32)cc1F [Example 154, 5-chloro-4-(3-(4-chlorophenyl)-5-fluoro-1H-indazol-1-yl)-2-fluoro-N-(methylsulfonyl)benzamide]
166 nM | CS(=O)(=O)NC(=O)c1ccc(-n2nc(Cl)c3cc(OCc4ccccc4)ccc32)c(Cl)c1 [Example 44, 4-(5-(benzyloxy)-3-chloro-1H-indazol-1-yl)-3-chloro-N-(methylsulfonyl)benzamide]
3000 to 10000 nM | Cn1nccc1-c1ccc2c(c1)c(Cl)nn2-c1cc(F)c(S(=O)(=O)Nc2cscn2)cc1Cl [Example 286, 5-chloro-4-(3-chloro-5-(1-methyl-1H-pyrazol-5-yl)-1H-indazol-1-yl)-2-fluoro-N-(thiazol-4-yl)benzenesulfonamide]
> 10000 nM | Cc1nn(-c2cc(F)c(C(=O)NS(C)(=O)=O)cc2Cl)c2ccc(Cl)cc12 [Example 1, 5-chloro-4-(5-chloro-3-methyl-1H-indazol-1-yl)-2-fluoro-N-(methylsulfonyl)benzamide]
> 10000 nM | CS(=O)(=O)NC(=O)c1cc(Cl)c(-n2nc(Cl)c3ccc(-c4ccccc4)cc32)cc1F [Example 263, 5-chloro-4-(3-chloro-6-phenyl-1H-indazol-1-yl)-2-fluoro-N-(methylsulfonyl)benzamide]
210 nM | Cc1cccc(-c2cn(-c3cc(F)c(C(=O)NS(C)(=O)=O)cc3Cl)c3ncccc23)c1 [Example 215, 5-chloro-2-fluoro-N-(methylsulfonyl)-4-(3-(m-tolyl)-1H-pyrrolo[2,3-b]pyridin-1-yl)benzamide]
1090 nM | CS(=O)(=O)NC(=O)c1ccc(-n2nc(-c3cccc(C(F)(F)F)c3)c3cc(Cl)ccc32)c(F)c1 [Example 121, 4-(5-chloro-3-(3-(trifluoromethyl)phenyl)-1H-indazol-1-yl)-3-fluoro-N-(methylsulfonyl)benzamide]
966 nM | CS(=O)(=O)NC(=O)c1cc(Cl)c(-n2nc(C#N)c3cc(Br)ccc32)cc1F [Example 22, 4-(5-bromo-3-cyano-1H-indazol-1-yl)-5-chloro-2-fluoro-N-(methylsulfonyl)benzamide]
16 nM | CS(=O)(=O)NC(=O)c1cc(Cl)c(-n2nc(-c3ccc(Cl)cc3F)c3cc(Cl)ccc32)cc1F [Example 66, 5-chloro-4-(5-chloro-3-(4-chloro-2-fluorophenyl)-1H-indazol-1-yl)-2-fluoro-N-(methylsulfonyl)benzamide]
51 nM | CS(=O)(=O)NC(=O)c1cc(Cl)c(-n2nc(-c3ccc(F)cc3)c3cc(Cl)ccc32)cc1F [Example 55, 5-chloro-4-(5-chloro-3-(4-fluorophenyl)-1H-indazol-1-yl)-2-fluoro-N-(methylsulfonyl)benzamide]
90 nM | Cc1cc(F)ccc1-c1cn(-c2cc(F)c(C(=O)NS(C)(=O)=O)cc2Cl)c2ncc(Cl)cc12 [Example 200, 5-chloro-4-(5-chloro-3-(4-fluoro-2-methylphenyl)-1H-pyrrolo[2,3-b]pyridin-1-yl)-2-fluoro-N-(methylsulfonyl)benzamide]
80 nM | CS(=O)(=O)NC(=O)c1cc(Cl)c(-n2nc(-c3ccc(F)cc3Cl)c3ccccc32)cc1F [Example 175, 5-chloro-4-(3-(2-chloro-4-fluorophenyl)-1H-indazol-1-yl)-2-fluoro-N-(methylsulfonyl)benzamide]
180 nM | CS(=O)(=O)NC(=O)c1cc(Cl)c(-n2nc(-c3cccc(C(F)(F)F)c3)c3cc(F)ccc32)cc1F [Example 150, 5-chloro-2-fluoro-4-(5-fluoro-3-(3-(trifluoromethyl)phenyl)-1H-indazol-1-yl)-N-(methylsulfonyl)benzamide]
49 nM | CS(=O)(=O)NC(=O)c1cc(Cl)c(-n2nc(Cl)c3cc(OCc4ccccc4)ccc32)cc1F [Example 28, 4-(5-(benzyloxy)-3-chloro-1H-indazol-1-yl)-5-chloro-2-fluoro-N-(methylsulfonyl)benzamide]
76 nM | CS(=O)(=O)NC(=O)c1cc(Cl)c(-n2nc(Cl)c3cc(OCc4ccc5ccccc5c4)ccc32)cc1F [Example 35, 5-chloro-4-(3-chloro-5-(naphthalen-2-ylmethoxy)-1H-indazol-1-yl)-2-fluoro-N-(methylsulfonyl)benzamide]
